Data as given in ChEMBL document CHEMBL1201862, “PubChem BioAssay data set” (2004).
Active and inactive are the calls of the source.

How the values were obtained:
[1] = molecular target: T1, Bcl-2-like protein 10 (Homo sapiens, UniProt Q9HD36); experiment: Bcl-B/TR3 peptide binding disruption – biochemical, fluorescence polarization, FITC-TR3 peptide, selectivity assay for Bfl-1 inhibitor project, primary screen (AID 748);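 also: fluorescence polarization from a fluorescein-labelled TR3 peptide binding purified Bcl-B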
T1 sequence (Q9HD36 whole entry): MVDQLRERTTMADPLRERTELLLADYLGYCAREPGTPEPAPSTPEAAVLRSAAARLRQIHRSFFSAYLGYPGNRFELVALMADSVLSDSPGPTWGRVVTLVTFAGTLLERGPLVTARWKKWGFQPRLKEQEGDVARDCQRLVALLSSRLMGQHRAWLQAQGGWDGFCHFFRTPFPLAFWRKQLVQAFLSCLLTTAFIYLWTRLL

[2] = molecular target: T2, Estrogen receptor beta (Homo sapiens, UniProt Q92731);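 also: recombinant ER-beta bound to coactivator SRC1 peptide in presence of estradiol agonist; inhibitors block coactivator peptide binding and lower the FRET signal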
T2 sequence (Q92731 whole entry): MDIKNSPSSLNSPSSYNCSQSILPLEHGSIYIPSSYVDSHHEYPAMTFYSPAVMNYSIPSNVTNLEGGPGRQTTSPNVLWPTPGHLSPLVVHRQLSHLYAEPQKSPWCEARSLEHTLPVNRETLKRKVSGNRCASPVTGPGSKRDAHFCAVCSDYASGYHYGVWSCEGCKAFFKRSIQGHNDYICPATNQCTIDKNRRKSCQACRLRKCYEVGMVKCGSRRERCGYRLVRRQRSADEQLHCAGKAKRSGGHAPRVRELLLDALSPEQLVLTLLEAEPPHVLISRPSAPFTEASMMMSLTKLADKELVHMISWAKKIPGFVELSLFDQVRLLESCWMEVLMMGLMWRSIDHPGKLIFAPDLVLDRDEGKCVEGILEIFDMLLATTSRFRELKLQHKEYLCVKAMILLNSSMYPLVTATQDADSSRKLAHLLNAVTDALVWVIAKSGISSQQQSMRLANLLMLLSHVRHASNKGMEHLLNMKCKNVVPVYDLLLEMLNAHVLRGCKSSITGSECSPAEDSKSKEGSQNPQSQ

[3] = molecular target: T2, Estrogen receptor beta; experiment: blockers of SRC-3 recruitment to ERβ – biochemical, ELISA, streptavidin-HRP readout, orthogonal assay, confirmation (AID 1060)
[4] = molecular target: T3, Caspase-3 (Homo sapiens, UniProt P42574); format: functional;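 also: Dose-response selectivity test against caspase-3 for candidate inhibitors of sentrin-specific proteases (SENPs)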
T3 sequence (P42574 whole entry): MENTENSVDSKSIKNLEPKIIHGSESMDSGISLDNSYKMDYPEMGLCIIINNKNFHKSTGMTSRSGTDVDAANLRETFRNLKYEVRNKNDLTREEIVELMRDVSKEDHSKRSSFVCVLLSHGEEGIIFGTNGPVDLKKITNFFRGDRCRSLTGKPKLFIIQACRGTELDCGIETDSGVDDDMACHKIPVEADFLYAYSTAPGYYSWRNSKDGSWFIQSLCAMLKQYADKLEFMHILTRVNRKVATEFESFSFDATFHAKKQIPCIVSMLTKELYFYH

[5] = molecular target: T4, Sentrin-specific protease 7 (Homo sapiens, UniProt Q9BQF6); format: functional;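 also: Luminescence-based dose-response confirmation of ultra-high-throughput screening hits, measuring inhibition of SENP7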
T4 sequence (Q9BQF6 whole entry): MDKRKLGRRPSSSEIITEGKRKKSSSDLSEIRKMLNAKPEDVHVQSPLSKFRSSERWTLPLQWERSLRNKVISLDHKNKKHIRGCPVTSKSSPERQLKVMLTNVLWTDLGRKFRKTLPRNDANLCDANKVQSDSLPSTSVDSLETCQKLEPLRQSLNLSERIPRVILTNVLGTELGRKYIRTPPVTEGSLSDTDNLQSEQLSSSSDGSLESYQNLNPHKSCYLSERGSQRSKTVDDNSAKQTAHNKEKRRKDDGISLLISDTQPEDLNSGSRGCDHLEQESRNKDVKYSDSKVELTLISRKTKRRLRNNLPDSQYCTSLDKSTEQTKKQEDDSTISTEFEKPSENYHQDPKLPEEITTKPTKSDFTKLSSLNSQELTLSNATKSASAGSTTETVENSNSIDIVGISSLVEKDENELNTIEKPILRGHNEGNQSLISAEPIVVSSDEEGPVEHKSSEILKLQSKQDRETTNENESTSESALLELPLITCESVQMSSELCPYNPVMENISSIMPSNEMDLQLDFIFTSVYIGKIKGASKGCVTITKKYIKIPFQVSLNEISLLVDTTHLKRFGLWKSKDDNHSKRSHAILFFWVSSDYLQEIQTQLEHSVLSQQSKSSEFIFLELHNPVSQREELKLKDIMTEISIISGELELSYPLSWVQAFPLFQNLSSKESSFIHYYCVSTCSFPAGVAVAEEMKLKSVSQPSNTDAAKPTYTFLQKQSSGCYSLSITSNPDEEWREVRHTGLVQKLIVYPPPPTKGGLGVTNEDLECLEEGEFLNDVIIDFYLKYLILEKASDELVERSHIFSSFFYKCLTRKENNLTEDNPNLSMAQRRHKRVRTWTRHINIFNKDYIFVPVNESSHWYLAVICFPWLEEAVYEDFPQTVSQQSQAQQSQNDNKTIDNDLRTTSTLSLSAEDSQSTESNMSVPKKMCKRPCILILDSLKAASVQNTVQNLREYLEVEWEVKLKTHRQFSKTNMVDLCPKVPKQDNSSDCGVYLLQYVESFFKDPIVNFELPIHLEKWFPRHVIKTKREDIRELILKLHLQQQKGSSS

[6] = molecular target: T5, Sentrin-specific protease 6 (Homo sapiens, UniProt Q9GZR1); format: functional;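 also: Luminescence-based dose-response confirmatory assay of SENP6 inhibition, following up an ultra-high-throughput screen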
T5 sequence (Q9GZR1 whole entry): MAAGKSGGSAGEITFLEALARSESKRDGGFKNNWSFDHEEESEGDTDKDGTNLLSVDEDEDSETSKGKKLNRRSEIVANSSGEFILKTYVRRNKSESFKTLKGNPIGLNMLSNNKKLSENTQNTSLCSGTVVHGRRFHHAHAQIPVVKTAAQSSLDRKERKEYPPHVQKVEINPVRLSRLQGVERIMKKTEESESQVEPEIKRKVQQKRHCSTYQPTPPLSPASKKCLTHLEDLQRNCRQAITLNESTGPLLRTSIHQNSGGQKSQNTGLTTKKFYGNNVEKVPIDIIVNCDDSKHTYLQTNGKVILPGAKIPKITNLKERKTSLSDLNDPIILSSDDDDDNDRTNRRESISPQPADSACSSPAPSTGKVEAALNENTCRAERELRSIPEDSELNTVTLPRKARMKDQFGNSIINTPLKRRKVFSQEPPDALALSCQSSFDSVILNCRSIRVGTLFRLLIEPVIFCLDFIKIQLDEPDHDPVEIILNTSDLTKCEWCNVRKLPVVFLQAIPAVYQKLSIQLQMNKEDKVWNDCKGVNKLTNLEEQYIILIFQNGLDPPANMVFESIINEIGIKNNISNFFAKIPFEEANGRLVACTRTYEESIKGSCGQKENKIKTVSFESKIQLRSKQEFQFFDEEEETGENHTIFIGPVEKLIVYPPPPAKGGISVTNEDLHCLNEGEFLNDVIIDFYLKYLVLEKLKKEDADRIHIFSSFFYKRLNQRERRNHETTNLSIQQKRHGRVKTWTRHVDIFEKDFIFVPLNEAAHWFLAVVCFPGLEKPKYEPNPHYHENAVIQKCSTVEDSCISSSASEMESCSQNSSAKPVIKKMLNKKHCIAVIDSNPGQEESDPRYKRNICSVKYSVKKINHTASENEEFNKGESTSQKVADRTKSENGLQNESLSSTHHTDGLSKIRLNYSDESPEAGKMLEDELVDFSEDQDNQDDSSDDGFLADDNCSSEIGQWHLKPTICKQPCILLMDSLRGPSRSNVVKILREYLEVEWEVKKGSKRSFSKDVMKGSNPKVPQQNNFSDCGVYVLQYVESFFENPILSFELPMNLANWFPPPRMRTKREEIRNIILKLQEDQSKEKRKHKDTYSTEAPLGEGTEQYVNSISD

[7] = molecular target: T6, Sentrin-specific protease 8 (Homo sapiens, UniProt Q96LD8); format: functional;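 also: luminescence read-out of SENP8 inhibition, dose-response confirmation following an ultra-high-throughput screen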
T6 sequence (Q96LD8 whole entry): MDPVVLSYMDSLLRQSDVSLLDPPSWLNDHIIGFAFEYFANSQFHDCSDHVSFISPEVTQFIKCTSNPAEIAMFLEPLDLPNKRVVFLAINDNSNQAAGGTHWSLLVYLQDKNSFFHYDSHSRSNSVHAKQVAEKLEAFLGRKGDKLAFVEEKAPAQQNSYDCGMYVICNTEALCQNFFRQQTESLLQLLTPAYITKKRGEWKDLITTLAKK

[8] = system: Vero; experiment: viability of Vero cells under compound – cytotoxicity control for flavivirus capping enzyme inhibitors (AID 588742); format: functional; details: Chlorocebus sabaeus
[9] = molecular target: Genome polyprotein (dengue virus type 2, UniProt P29990); experiment: flavivirus cap methylation enzyme inhibition – biochemical, confirmation dose response, primary screen (AID 588689); format: functional
Chain of Genome polyprotein (P29990 2492-3391 limits assumed): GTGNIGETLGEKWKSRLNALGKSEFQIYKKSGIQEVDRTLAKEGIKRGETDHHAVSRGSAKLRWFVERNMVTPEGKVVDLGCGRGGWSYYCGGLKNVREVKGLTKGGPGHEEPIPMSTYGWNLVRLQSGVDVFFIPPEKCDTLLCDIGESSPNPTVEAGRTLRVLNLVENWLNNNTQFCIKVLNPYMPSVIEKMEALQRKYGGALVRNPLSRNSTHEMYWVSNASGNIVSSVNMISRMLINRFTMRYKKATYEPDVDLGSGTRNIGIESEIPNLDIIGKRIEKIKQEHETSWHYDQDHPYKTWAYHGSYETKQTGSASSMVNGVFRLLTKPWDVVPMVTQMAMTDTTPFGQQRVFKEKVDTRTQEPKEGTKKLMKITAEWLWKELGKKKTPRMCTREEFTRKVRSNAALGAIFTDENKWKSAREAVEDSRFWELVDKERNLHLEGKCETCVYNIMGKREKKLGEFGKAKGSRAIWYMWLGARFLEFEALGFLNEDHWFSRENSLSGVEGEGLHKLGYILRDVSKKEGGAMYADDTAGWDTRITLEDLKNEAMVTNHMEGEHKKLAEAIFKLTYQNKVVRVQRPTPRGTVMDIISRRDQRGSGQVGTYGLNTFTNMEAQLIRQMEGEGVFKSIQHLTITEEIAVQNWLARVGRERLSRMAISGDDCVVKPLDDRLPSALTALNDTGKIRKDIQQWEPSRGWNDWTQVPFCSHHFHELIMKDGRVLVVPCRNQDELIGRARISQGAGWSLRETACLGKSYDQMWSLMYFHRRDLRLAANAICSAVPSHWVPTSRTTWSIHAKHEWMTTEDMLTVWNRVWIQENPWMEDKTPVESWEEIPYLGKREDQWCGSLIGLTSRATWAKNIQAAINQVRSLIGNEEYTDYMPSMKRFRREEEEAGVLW

[10] = viability loss in THP-1 monocytes – THP-1 cells, cytotoxicity control for Vif-APOBEC3G degradation inhibitor project, dose response (AID 1117359); format: functional; details: THP-1
[11] = molecular target: Glutathione-S-transferase (Schistosoma japonicum, UniProt Q26513); experiment: GST-antibody interaction or FRET quenching – biochemical, TR-FRET, artefact control for Vif-APOBEC3G degradation inhibitor project, dose response (AID 1117362); format: functional
Chain of Glutathione-S-transferase (Q26513 whole entry): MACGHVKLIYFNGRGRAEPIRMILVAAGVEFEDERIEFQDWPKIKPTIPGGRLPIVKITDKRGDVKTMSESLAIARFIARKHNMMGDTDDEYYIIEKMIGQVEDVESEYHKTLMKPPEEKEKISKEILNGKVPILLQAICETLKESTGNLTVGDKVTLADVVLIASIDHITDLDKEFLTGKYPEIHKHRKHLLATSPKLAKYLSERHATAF

[12] = NIH-3T3 fibroblast cytotoxicity, dose response, cytotoxicity control, cell-based, fluorescence, Alamar Blue, secondary assay (AID 2327); format: functional;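 also: NIH-3T3 mouse fibroblasts cultured with fluconazole at 8 µg/mL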
[13] = fluconazole-exposed Candida albicans growth modulators – fluorescence, retest, confirmation (AID 2467); format: functional, cell-based
[14] = HPDE-C7 pancreatic duct cell viability loss – fluorescence, HTS (AID 430); format: functional, cell-based; details: Homo sapiens
[15] = Trypanosoma cruzi growth suppression in host cells – NIH3T3 host cells, beta-gal luminescence, confirmation (AID 2044); format: functional, cell-based;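 also: intracellular parasites grown in NIH/3T3 mouse fibroblasts as host cells; luminescent beta-galactosidase reporter signal from transgenic T. cruzi replicating inside host cells; inhibitors lower the luminescence signal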
[16] = viability loss of HPDE-C7K cells – cell-based, fluorescence, HTS, primary screen (AID 431); format: functional; details: Homo sapiens
[17] = NIH3T3 cell viability loss – ATP luminescence, mouse fibroblasts, counter-screen, dose response (AID 2010); format: functional, cell-based;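 also: cells exposed to compound for about 90 hours before reading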
[18] = molecular target: Sphingosine 1-phosphate receptor 4 (Homo sapiens, UniProt O95977); experiment: Fluorescence dose response cell-based high throughput screening assay for antagonists of the Sphingosine 1-Phosphate Receptor 4 (S1P4). [Related pubchem assays: 1524 (Confirmation in triplicates.), 1510 (Primary screen.)]; format: functional
Chain of Sphingosine 1-phosphate receptor 4 (O95977 whole entry): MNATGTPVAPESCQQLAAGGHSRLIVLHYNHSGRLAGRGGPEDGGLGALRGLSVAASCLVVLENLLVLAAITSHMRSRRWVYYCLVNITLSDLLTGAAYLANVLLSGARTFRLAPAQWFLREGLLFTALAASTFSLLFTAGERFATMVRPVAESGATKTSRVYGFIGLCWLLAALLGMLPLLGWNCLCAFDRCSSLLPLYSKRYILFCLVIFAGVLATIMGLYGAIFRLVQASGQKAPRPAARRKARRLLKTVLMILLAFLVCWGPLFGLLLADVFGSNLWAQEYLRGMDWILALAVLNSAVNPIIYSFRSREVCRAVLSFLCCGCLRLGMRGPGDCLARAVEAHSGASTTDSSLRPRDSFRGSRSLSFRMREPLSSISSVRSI

[19] = molecular target: Sphingosine 1-phosphate receptor 1 (Homo sapiens, UniProt P21453); format: functional;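 also: Tango beta-arrestin reporter U2OS cells stimulated with S1P near its EC80; inhibitor potency meaning antagonism of receptor activation by the natural agonist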
Chain of Sphingosine 1-phosphate receptor 1 (P21453 whole entry): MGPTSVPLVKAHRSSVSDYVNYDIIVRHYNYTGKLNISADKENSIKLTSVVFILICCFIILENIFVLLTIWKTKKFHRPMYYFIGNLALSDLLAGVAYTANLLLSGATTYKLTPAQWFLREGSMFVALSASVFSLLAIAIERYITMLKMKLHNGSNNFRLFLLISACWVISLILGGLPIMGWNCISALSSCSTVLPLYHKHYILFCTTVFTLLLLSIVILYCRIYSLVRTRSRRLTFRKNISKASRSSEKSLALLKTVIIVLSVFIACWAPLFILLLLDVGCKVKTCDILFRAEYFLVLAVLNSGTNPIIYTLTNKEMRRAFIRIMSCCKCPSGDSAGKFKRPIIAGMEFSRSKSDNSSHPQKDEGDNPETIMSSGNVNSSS

[20] = molecular target: Sphingosine 1-phosphate receptor 2 (Homo sapiens, UniProt O95136); experiment: Dose Response Cell Based Assay for Agonists of the S1P2 Receptor of Purchased Analogues. [Related pubchem assays: 729, 843, 854, 736 ]; format: functional
Chain of Sphingosine 1-phosphate receptor 2 (O95136 whole entry): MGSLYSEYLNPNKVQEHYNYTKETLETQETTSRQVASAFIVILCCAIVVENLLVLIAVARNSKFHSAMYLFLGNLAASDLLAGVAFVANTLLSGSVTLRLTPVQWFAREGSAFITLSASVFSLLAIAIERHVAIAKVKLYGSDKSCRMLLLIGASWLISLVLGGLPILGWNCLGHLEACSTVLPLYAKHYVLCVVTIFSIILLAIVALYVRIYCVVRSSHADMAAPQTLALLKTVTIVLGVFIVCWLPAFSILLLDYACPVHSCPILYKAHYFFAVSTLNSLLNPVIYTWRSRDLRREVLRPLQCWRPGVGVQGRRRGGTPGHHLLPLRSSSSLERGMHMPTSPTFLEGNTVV

Q: With Cc1ccc2c(c1)c(=O)c1c3n2CCN(C(=O)CCl)C3CC1 (stereo not given) as the compound, how does the IC50 [1] read?
A: 11.4 µM (active)

Q: What about the IC50 [2] of the same compound?
A: 8.75 µM (active)

Q: What about the IC50 [3] of the same compound?
A: 0.348 µM (not active)

Q: And the IC50 [4]?
A: 14 µM (active)

Q: And the IC50 [5]?
A: 23.9 µM (active)

Q: What about the IC50 [6] of the same compound?
A: 8.69 µM (active)

Q: And the IC50 [7]?
A: 14.2 µM (active)

Q: What about the CC50 [8] of the same compound?
A: 13.1 µM (active)

Q: And the IC50 [9]?
A: > 100 µM (active)

Q: And the CC50 [10]?
A: 10.9 µM (active)

Q: What about the IC50 [11] of the same compound?
A: > 100 µM (active)

Q: Which EC50 [12] does the source give for CS(=O)(=O)c1nc(-c2cccs2)cc(C(F)(F)F)n1 here?
A: 4.62 µM (inconclusive)

Q: And the EC50 [13]?
A: > 38 µM (not active)

Q: What about the EC50 [14] of the same compound?
A: 2.66 µM (active)

Q: What about the EC50 [15] of the same compound?
A: 2.57 µM (active)

Q: What about the EC50 [16] of the same compound?
A: 2.73 µM (active)

Q: And the EC50 [17]?
A: 3.19 µM (active)

Q: And the IC50 [18]?
A: 0.989 µM (active)

Q: And the IC50 [19]?
A: 22.9 µM (not active)

Q: With Cc1noc(C)c1C(=O)OCC(=O)c1cc(C)n(Cc2ccccc2)c1C as the compound, how does the EC50 [20] read?
A: > 30 µM (not active)
